Test results taken from the Kinase Knowledgebase extract (Sharma et al. 2016).

The compounds below were run against CDK2 (UniProt P24941) (assay: Enzyme Assay).
In the case of `Cc1cnc(N[C@@H](CO)c2ccccc2)nc1-c1c[nH]c(C(=O)N[C@H](CO)c2ccccc2)c1`, the Ki is reported as 100 to 1000 nM.
`CCNc1ncc(C)c(-c2c[nH]c(C(=O)N[C@H](CO)c3ccccc3)c2)n1` showed a Ki of 1000 to 20000 nM.
For `Cc1cnc(Nc2cccc(F)c2)nc1-c1c[nH]c(C(=O)NC(CO)c2cccc(C(F)(F)F)c2)c1` (configuration not stated), the Ki was 100 to 1000 nM.
Compound `Cc1cnc(Nc2ccccc2)nc1-c1c[nH]c(C(=O)NC(CO)c2cccc(C(F)(F)F)c2)c1` (configuration not stated) has a Ki of 100 to 1000 nM.
`Cc1cnc(Nc2cccc(C(F)(F)F)c2)nc1-c1c[nH]c(C(=O)N[C@H](CO)c2ccccc2)c1` showed a Ki of less than 100 nM.
With `COc1ccccc1Nc1ncc(C)c(-c2c[nH]c(C(=O)N[C@H](CO)c3ccccc3)c2)n1` the Ki was 1000 to 20000 nM.
`Cc1cnc(NC2(CO)CC2)nc1-c1c[nH]c(C(=O)N[C@H](CO)c2ccccc2)c1` gave a Ki of 100 to 1000 nM.
`Cc1cnc(Nc2ccc(OCc3ccccc3)cc2)nc1-c1c[nH]c(C(=O)N[C@H](CO)c2ccccc2)c1` showed a Ki of less than 100 nM.
In the case of `Cc1cnc(NC2CC2)nc1-c1c[nH]c(C(=O)N[C@H](CO)c2ccccc2)c1`, the Ki is reported as 100 to 1000 nM.
`Cc1cnc(NCC2CC2)nc1-c1c[nH]c(C(=O)N[C@H](CO)c2ccccc2)c1` gave a Ki of 1000 to 20000 nM.
`Cc1cnc(N[C@H]2CC[C@H](O)CC2)nc1-c1c[nH]c(C(=O)N[C@H](CO)c2ccccc2)c1` gave a Ki of less than 100 nM.
With `Cc1cnc(NCc2ccccc2)nc1-c1c[nH]c(C(=O)N[C@H](CO)c2ccccc2)c1` the Ki was 100 to 1000 nM.
